In patent US7795223B2, “Treatment of inflammatory airway disease” (Novozymes Biopharma Au Ltd., priority 2004, dated 2010):

Tests used:
BALB/c mice [1] = assay: Whole body plethysmography of airway obstruction in the murine OVA model; type: in vivo, mouse; settings: preliminary experiment, peptide before allergen challenge, days 0-6
Description: Mice were immunized against OVA by i.p. injection and fourteen days later an intra-nasal (i.n.) challenge dose of OVA protein was administered. Three days later the degree of airway inflammation was assessed by bronchoalveolar lavage (BAL,) followed by counting the infiltrating leukocytes. In addition, the lungs were sectioned and stained with haematoxylin and eosin for histological analysis. In a preliminary experiment, live mice were monitored after treatment using whole body plethysmography to assess the degree of airway obstruction. The effects of antigen challenge on airway hyperreactivity of mice in the experimental model described above can be measured by whole body plethysmography. This can be used to make an accurate comparison with the airway hyperreactivity observed in human asthmatics. The mice are anesthetized with pentobarbitol (70-90 mg/kg body weight, i.p.), and the jugular vein is cannulated with PE 10 silastic tubing. The tracheae are then intubated with a specially-angled 18 gauge needle, the chest opened, and the tubing connected to a Harvard ventilator (tidal volume=0.2 ml, frequency 120 breaths/min, positive end-expiratory pressure 2.5-3.0 cm H2 O) and placed in a whole body plethysmograph. This ventilation maintains normal arterial blood gases in the subject mouse. The dead space volume is 0.025 ml. […]

sensitised animals = settings: applied topically following application of a contact allergen; cited from earlier work
[2] = tested on: human patients with psoriasis, atopic eczema, lichen planus, or contact dermatitis; settings: cited from earlier work
BALB/c mice [3] = assay: Murine OVA model of asthma: BAL cell counts and lung histology; type: in vivo, mouse; settings: for eosinophilia on lung histology / eosinophil infiltration into lung tissue: peptide i.n. 24 h before i.n. OVA challenge
Description: A murine model in which immunization with ovalbumin (OVA) is used to induce asthma-like symptoms in normal Balb/c mice was employed. This model is described in Archer et al. 2004.
Mice were immunized against OVA by i.p. injection and fourteen days later an intra-nasal (i.n.) challenge dose of OVA protein was administered. Three days later the degree of airway inflammation was assessed by bronchoalveolar lavage (BAL,) followed by counting the infiltrating leukocytes. In addition, the lungs were sectioned and stained with haematoxylin and eosin for histological analysis. In a preliminary experiment, live mice were monitored after treatment using whole body plethysmography to assess the degree of airway obstruction.
Female BALB/c mice (6-8 wk of age) were injected i.p. with 10 μg of OVA (Sigma-Aldrich, St. Louis, Mo.) in 200 μl of alum adjuvant (Serva, Heidelberg, Germany) on day 1. Fourteen days after the i.p. immunization, mice were anaesthetized by an i.p. injection of a mixture of ketamine and xylazine (Sigma-Aldrich), and treated i.n. with 50 μl of PBS containing 100 μg of OVA.
In preliminary experiments the peptide or “mock” peptide was given at either of two different time points (24 h prior to i.p. OVA sensitization or 24 h prior to i.n. OVA challenge) at a final concentration of either 1 mM (solution) or 50 mM (suspension) in phosphate-buffered saline (PBS; 0.02 M sodium phosphate buffer with 0.15 M sodium chloride, pH adjusted to 7.4.). The 50 mM concentration of the TCR peptide was chosen because 500 μM was the optimal blocking concentration for T cells in in vitro experiments. However, experiments using titration of the peptide will be used to determine the optimal dose. A 100 μl volume of formulated peptide was administered to the mice intranasally. […]
Three days after the i.n. challenge with OVA, the mice from the different groups were sacrificed, the tracheas were cannulated, and a BAL was performed by flushing lung and airways five times with 1 ml of PBS. BAL cells were counted and spun on to glass slides using a cytospin (Shandon Southern Products, Asmoor, U.K.), and then stained with Diff-Quik (Roche Diagnostics, Mannheim, Germany) according to the manufacturer's instructions. […]
Percentages of macrophages, lymphocytes, neutrophils, and eosinophils were determined microscopically using standard histological criteria.
On days 1-6 after the last intranasal challenge with either OVA or saline, the lungs were analyzed by histology. […] The number of eosinophils in the lungs was quantified microscopically using a calibrated stage. […]

Brown Norway rats = assay: Brown Norway rat OVA model of asthma: BAL leukocytes, eosinophil peroxidase and myeloperoxidase; type: in vivo; settings: administration prior to challenge with allergen
Description: The Brown Norway rat model was also employed to test the effects of TCR mimic peptides on reducing the symptoms of asthma. Similarly to the murine model described above, this model also involves immunisation with OVA. The model is described in Elwood, 1991. The model is illustrated in FIG. 5. In this model 10 rats were used per treatment group.
Rats were immunized against OVA by s.c. injection on Day 1, 14 and 21, and on Day 28 an inhalation challenge dose of OVA protein was administered. One day later (Day 29) the degree of airway inflammation was assessed by bronchoalveolar lavage (BAL), followed by counting of the infiltrating leukocytes and measurement of the activity of eosinophil peroxidase and myeloperoxidase.
Male Brown Norway rats (approximately 8 wks of age) were injected s.c. with 10 μg of OVA in 1 ml of alum adjuvant on day 1, 14 and 21. Concurrently, the animals received an i.p. injection of 0.25 ml Bordetella pertussis vaccine (Trivax-Evans Medical). Seven days. after the final sensitizing dose, the animals were restrained and exposed, nose only, to an aerosol of 10 mg/ml OVA for 1 h using a Wright nebuliser.
In these experiments the peptide was administered either intra-tracheally (i.t) (3 mg/ml, 50 μl in 0.9% saline per rat, 24 hours before OVA challenge), intra-nasally (i.n.) (50 mg/ml, 100 μl in 0.9% saline per rat, 24 hours before OVA challenge) or by inhalation (0.1 mg/ml in 0.9% saline, 50 ml delivered by aerosol at a flow rate of 1 ml/min, for a total of 50 minutes, using a Wright nebuliser to ten (10) rats, 24 h and 4 h prior to OVA challenge). […]
Twenty-four hours after the challenge with OVA, the rats from the different groups were anaesthetized by an i.p injection of sodium pentobarbital (100 mg/kg). […] The BAL fluid was centrifuged and the collected cells resuspended in 2 ml of PBS and the total number of leukocytes recovered were counted. The activity of eosinophil peroxidase and myeloperoxidase in the supernatant, following centrifugation (i.e., the cell-free BAL fluid) was determined by the method described in Schneider et al. 1997.

T cells = assay: Blocking of T cell function; type: cell-based; settings: in vitro experiments

NH2-Gly-Leu-Arg-Ile-Leu-Leu-Leu-Lys-Val-OH (H-GLRILLLKV-OH) [peptide, 9 amino acids, murine TCR-α transmembrane chain]
airway obstruction measured by whole body plethysmography (BALB/c mice [1]): significant effects | airway obstruction measured by whole body plethysmography (BALB/c mice [1]; listed as TCR mimic peptide): significant reduction | development of contact sensitivity (sensitised animals): inhibited development of contact sensitivity | therapeutic activity in human patients [2]: showed therapeutic activity | asthma symptoms (BALB/c mice [3]; asthmatic mice, non-transgenic system): reduces asthma symptoms | eosinophilia in BAL (BALB/c mice [3]; group C: peptide i.n. 24 h before i.n. OVA challenge, two independent experiments, pooled data): significant decrease | eosinophilia on lung histology / eosinophil infiltration into lung tissue (BALB/c mice [3]; two independent experiments, pooled data): significant decrease | eosinophilia on lung histology / eosinophil infiltration into lung tissue (BALB/c mice [3]; two independent experiments, pooled data, listed as TCR mimic peptide): marked reduction | eosinophil peroxidase activity in bronchoalveolar lavage fluid (Brown Norway rats): reduction | leukocyte infiltration into lung tissue (Brown Norway rats): marked reduction | myeloperoxidase activity in bronchoalveolar lavage fluid (Brown Norway rats): reduction | optimal blocking concentration for T cells (T cells): 500 µM
